What was measured:
Test in all cases: HotSpot kinase assay
Conditions in all cases: read-out: % Enzyme Activity (relative to DMSO control), 10 uM
GCK/MAP4K2 = GCK/MAP4K2 (Homo sapiens, UniProt Q12851)
IKKe/IKBKE = IKKe/IKBKE (Homo sapiens, UniProt Q14164)
Excerpt: (§1) Additionally, a 10-dose dilution series of staurosporine and other enzyme-appropriate compounds were included as positive control inhibitors.

EPHB2 = EPHB2 (Homo sapiens, UniProt P29323)
Excerpt: as §1

CLK2 = CLK2 (Homo sapiens, UniProt P49760)
Excerpt: as §1

SIK3 = SIK3 (Homo sapiens, UniProt Q9Y2K2)
Sequence of SIK3 (Q9Y2K2 whole entry): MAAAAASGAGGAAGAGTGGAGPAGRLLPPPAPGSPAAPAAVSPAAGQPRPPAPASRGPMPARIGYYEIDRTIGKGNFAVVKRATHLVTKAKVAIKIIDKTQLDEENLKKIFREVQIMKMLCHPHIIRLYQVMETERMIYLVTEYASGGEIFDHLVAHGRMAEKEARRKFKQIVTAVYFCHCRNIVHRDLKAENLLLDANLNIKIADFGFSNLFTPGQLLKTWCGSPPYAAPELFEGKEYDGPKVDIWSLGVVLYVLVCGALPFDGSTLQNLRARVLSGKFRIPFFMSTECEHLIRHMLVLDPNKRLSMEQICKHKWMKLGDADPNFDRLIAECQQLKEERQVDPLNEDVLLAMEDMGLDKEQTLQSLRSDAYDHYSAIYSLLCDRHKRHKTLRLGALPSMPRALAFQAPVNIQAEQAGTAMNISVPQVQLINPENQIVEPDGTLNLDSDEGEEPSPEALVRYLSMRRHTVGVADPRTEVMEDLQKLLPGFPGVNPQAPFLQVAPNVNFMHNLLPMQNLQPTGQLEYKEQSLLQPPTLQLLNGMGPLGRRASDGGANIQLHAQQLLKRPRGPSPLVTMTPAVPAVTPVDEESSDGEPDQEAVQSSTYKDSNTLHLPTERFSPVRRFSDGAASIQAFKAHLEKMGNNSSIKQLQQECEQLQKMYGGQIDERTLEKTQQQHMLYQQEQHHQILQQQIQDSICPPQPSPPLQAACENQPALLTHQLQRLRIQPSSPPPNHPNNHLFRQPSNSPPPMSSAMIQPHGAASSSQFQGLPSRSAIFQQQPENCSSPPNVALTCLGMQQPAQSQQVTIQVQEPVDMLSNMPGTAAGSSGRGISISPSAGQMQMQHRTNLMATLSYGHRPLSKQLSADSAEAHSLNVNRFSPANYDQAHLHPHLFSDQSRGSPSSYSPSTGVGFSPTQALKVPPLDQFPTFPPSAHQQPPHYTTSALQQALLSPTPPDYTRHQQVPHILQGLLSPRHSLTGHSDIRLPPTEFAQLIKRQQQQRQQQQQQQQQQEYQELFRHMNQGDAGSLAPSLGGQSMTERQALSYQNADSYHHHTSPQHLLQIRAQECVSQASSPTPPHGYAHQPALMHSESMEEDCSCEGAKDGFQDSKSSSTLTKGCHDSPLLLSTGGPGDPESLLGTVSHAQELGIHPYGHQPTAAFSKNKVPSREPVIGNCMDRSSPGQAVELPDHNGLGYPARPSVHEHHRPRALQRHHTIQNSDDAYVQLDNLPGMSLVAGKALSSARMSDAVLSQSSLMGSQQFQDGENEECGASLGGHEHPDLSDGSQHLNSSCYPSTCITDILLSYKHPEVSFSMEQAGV
Excerpt: as §1

Sequence of EPHB2 (P29323 19-1055): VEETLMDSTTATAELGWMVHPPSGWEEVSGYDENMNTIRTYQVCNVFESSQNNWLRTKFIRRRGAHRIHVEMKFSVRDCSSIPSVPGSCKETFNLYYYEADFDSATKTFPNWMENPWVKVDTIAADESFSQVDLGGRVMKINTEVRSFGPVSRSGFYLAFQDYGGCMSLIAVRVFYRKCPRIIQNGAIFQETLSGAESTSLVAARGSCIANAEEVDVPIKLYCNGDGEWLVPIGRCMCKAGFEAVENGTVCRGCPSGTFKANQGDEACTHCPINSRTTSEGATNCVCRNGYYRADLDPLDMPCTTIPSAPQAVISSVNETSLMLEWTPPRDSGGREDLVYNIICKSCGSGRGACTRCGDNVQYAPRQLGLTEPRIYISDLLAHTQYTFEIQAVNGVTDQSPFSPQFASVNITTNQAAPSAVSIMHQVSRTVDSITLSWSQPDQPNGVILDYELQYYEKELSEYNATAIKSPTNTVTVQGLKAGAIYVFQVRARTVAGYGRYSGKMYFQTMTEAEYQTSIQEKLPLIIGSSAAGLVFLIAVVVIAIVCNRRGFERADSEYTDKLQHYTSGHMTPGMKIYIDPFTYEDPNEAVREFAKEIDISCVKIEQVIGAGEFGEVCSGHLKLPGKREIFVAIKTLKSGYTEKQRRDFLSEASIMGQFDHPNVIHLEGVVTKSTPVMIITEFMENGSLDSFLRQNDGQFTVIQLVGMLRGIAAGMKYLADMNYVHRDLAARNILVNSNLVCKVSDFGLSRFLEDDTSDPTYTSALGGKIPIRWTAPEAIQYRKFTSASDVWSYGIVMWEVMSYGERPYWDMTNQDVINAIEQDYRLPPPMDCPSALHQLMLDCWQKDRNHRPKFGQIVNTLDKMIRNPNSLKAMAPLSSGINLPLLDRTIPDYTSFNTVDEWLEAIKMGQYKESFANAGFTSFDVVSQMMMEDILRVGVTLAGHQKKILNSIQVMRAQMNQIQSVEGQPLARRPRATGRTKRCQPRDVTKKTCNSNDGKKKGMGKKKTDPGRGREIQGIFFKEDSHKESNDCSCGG
Sequence of IKKe/IKBKE (Q14164 whole entry): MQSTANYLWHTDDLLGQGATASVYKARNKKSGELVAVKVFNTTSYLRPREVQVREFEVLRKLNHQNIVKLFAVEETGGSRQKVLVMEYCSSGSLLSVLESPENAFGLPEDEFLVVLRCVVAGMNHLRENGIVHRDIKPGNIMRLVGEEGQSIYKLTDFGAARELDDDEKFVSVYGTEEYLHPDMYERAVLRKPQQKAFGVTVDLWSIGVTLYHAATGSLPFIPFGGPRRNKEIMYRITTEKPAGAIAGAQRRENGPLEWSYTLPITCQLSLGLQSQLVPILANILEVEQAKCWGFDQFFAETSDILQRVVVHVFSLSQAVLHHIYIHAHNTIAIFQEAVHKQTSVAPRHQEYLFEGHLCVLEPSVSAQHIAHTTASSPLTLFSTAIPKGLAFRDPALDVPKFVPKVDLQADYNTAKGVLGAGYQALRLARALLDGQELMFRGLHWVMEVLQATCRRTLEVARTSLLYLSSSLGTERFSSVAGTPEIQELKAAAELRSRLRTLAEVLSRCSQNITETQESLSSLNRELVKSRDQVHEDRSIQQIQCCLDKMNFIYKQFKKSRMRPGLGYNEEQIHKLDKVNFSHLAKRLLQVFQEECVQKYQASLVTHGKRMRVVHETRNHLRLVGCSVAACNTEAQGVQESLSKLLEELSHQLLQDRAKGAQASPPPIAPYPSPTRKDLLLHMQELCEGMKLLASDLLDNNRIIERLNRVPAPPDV
Sequence of CLK2 (P49760 whole entry): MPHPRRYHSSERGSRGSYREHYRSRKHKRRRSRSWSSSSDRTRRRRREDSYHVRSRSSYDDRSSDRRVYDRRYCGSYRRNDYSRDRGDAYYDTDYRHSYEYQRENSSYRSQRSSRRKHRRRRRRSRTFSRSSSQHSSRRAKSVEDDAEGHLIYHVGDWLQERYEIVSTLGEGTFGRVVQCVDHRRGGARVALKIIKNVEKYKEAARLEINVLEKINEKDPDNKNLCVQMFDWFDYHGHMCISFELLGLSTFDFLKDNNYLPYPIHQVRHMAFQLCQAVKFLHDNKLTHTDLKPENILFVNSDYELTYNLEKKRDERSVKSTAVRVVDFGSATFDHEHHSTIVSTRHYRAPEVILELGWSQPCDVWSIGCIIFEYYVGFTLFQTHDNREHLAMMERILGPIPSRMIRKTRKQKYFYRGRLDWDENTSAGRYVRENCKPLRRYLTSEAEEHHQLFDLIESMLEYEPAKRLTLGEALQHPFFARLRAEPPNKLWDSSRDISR
Sequence of GCK/MAP4K2 (Q12851 whole entry): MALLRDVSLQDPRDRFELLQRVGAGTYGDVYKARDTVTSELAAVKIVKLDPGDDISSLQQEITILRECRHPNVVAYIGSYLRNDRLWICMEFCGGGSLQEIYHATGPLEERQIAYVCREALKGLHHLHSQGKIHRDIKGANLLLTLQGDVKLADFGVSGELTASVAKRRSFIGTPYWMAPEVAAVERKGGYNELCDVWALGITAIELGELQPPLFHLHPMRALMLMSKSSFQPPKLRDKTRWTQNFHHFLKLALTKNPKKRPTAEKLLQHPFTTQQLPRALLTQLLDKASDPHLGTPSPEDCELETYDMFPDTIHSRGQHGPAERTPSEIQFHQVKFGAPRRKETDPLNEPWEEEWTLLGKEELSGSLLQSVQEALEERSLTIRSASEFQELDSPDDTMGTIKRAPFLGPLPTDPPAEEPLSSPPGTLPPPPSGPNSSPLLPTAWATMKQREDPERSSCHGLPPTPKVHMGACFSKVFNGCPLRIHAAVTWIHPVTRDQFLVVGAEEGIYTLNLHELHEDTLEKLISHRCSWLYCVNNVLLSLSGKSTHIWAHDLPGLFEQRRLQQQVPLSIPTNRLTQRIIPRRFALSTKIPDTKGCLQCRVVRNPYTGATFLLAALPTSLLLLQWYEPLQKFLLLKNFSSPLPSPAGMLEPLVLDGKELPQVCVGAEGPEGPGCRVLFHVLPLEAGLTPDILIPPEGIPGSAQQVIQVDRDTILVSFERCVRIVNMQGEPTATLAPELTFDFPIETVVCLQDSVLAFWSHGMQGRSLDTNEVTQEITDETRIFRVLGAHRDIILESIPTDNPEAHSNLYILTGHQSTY

Work on `C#C[C@@](C)(c1ccc(Cl)cc1)c1csc(NC(=O)c2c(F)cc(N3CCNCC3)cc2F)n1` (stereo in doubt) [DF-003] yielded a remaining activity at 10 µM (GCK/MAP4K2) of 84%, a remaining activity at 10 µM (IKKe/IKBKE) of 104% and a remaining activity at 10 µM (EPHB2) of 101%. It also gave a remaining activity at 10 µM (CLK2) of 90.6% and a remaining activity at 10 µM (SIK3) of 79.6%.

Source: PMC12420824, “Discovery of a selective alpha-kinase 1 inhibitor for the rare genetic disease ROSAH syndrome” (Nature Communications, 2025)
